Measured values reported in a melting point compilation (Tetko et al.).

melting point [°C]	SMILES
126 to 127	Cn1ccc(-c2cccc(C(=O)Oc3c(F)c(F)c(F)c(F)c3F)c2)n1
221 to 225	Cc1nc(-c2ccc3c(c2)CCO3)sc1C(=O)O
149	Cc1ccc2c(c1)OC(C)(c1ccc(C)cc1OC(=O)c1ccccc1)CC2(C)C (configuration not stated)
74 to 76	CCCCCCCCCCCCCCCCCCCCCCCO
116	CC(=O)c1ccc(-n2ccnc2)cc1
41 to 42	Nc1ccccc1OCCN1CCOCC1
4	CCCCCCCCCCCCCCC(C)C
79	Clc1cc(N2CCCCC2)ncn1
140	Cc1ccc(C)c2c1C(=O)c1ccccc1C2=O
285	Nc1ccc(N)c2c1C(=O)c1c(N)ccc(N)c1C2=O
36	COC(=O)C=Cc1ccccc1
36 to 38	COC(=O)c1ccc(C)c(C)c1
68 to 69	Cc1nc(-c2ccc(C(F)(F)F)cc2)sc1Br
140	CC(=O)Nc1ccc(C(C)=O)cc1Br
96 to 97	S=C=Nc1ccc2nsnc2c1
115	COc1c(Cl)ccc(Cl)c1C(=O)O
176 to 177	O=C(O)c1ccc(OC(F)(F)C(F)F)cc1
232	O=c1[nH]cccc1[N+](=O)[O-]
-78.7	CN(C)S(F)(F)F
200 to 210	CS(=O)(=O)C1CS(=O)(=O)CC1O (configuration not stated)
293 to 295	N#Cc1c(C(F)(F)F)cc(-c2cccs2)[nH]c1=O
178	CCOC(=O)c1[nH]c2cc3[nH]c(C(=O)OCC)c(OC(C)=O)c3cc2c1OC(C)=O
205	O=C(O)C12CC3CC(CC(O)(C3)C1)C2

melting point [°C]	SMILES
313	O=C1c2ccccc2C(=O)c2c1cc(O)c(O)c2O
172	CCOC(=O)c1nn(-c2ccc(C)cc2)c(C)c1C(=O)c1noc(-c2ccc3ccccc3c2)c1S(=O)(=O)c1ccccc1
171	NC(=O)c1cc(Cl)ccc1N
76	CC(=O)OCC1OCC(OC(C)=O)(C2C=Nc3c2ncn(C2(OC(C)=O)COC(COC(C)=O)C2OC(C)=O)c3=O)C1OC(C)=O (configuration not stated)
90	O=C(O)C1CCCCC1C(=O)OCCO (configuration not stated)
94	O=Cc1cnc(Br)s1
78	CC(=O)c1ccc(C#N)s1
81 to 83	Cc1nc(-c2cccc(Br)c2)no1
195 to 196	C=C1C(C)CCC2(C)C3=C(C(=O)C4(CC4C)C(O)C3=O)C(OC(C)=O)C(O)C12 (configuration not stated)
263	N#C/C(=N\Nc1c(Cl)cc(Cl)cc1Cl)c1nc2ccccc2[nH]1
172 to 178	Oc1ccc(O)c2c1C1CCC2C1
109	Nc1ccc(C=Cc2cccc(N)c2)cc1
-23	O=C1C=C(c2ccccc2)CC1
121	Cc1ccc(S(C)(=O)=O)cc1[N+](=O)[O-]
148 to 151	CC(=NO)c1ccc(Cl)cc1Cl
31	O=S(=O)(Cl)c1ccccc1OC(F)(F)F
152	N/N=C(/C(=O)c1cccc2ccccc12)c1ccccc1
84 to 86	O=C(O)COc1ccc(OC(F)(F)F)cc1
148 to 150	O=S(=O)(Cl)c1cccc2nsnc12
80 to 81	Cn1nc(-c2ccc(C=O)s2)cc1C(F)(F)F
95	CC(C)(O)C#CC(C)(C)O
220 to 223	NC(=O)c1ccc(C(F)(F)F)nc1O
199	Cc1c(N)cc([N+](=O)[O-])cc1C(N)=O

melting point [°C]	SMILES
215	O=[N+]([O-])c1cc([N+](=O)[O-])c(/C=C/c2cccc3c2OCO3)cc1/C=C/c1cccc2c1OCO2
183 to 184	COc1ccc2c(c1)CC1(CCC(O)(c3ccc(C(C)(C)C)cc3)CC1)C2=O (configuration not stated)
145	COC(=O)C(Br)C(Br)c1cccc(C(Br)C(Br)C(=O)OC)c1 (configuration not stated)
87	Cc1cc(C)c(CO)c(C)c1
90 to 95	O=C1COCC(=O)O1
63	O=[N+]([O-])c1ccc(CCO)cc1
32	CC(=O)Oc1ccc(I)cc1
170	COc1ccc(C2(C)CCc3oc4ccc(C)cc4c3-c3oc(C)cc32)cc1 (configuration not stated)
165	Nc1c(C(=O)Oc2ccccc2)sc2sc(C(=O)Oc3ccccc3)c(N)c12
36	CC(=O)c1cccc(-c2ccccc2)c1
90	COc1ccc(C(=NCc2ccccc2)c2ccc(OC)cc2)cc1
270	CC1CCc2cc3c(cc2N1C(=O)c1ccccc1)CCC(C)N3C(=O)c1ccccc1 (configuration not stated)
43	O=Cc1ccc(N2CCCCC2)nc1
-47	CCC(CO)[N+](=O)[O-] (configuration not stated)
108 to 109	Nc1ccc(Sc2cc(Cl)ccc2Cl)nc1
-66.5	CCc1cc(CC)cc(CC)c1
94	CC(=O)C(C#N)(CC(=O)c1ccccc1)c1ccccc1 (configuration not stated)
21	CCOc1ccc(Cl)cc1
63	Oc1c(F)cccc1Cl
120	Nc1ccc(CO)cn1
115	CC(C)C(O)C1(C)CCC(C(=O)O)C(C)(C)O1 (configuration not stated)
68	O=C(Cl)c1ccc2c(c1)C(=O)OC2=O
163	O=C(c1ccccc1)c1ccc(C(=O)c2ccccc2)cc1

melting point [°C]	SMILES
178 to 185	O=C1SC(Cl)(Cl)c2nc3c(cc21)C(=O)SC3(Cl)Cl
79 to 81	O=C(O)Cc1ccc(Oc2ccccc2)cc1
213	CC(=O)OC1CC2C(C)(C)CCCC2(C)C2=C1C(=O)C(C(C)C)=C(O)C2=O (configuration not stated)
255	FC(F)(F)c1nnc(S)n1N=Cc1ccc(Cl)cc1
-67.5	CCCCCCC(=O)OCCCC
37 to 37.5	CC(Cc1ccccc1)C(=O)O (configuration not stated)
225	CN1C(CCl)Nc2cc(Cl)c(S(N)(=O)=O)cc2S1(=O)=O (configuration not stated)
54	CC1CCC(C(C)C)C(OCC(=O)O)C1 (configuration not stated)
76	N#Cc1ccc(F)cc1Br
155	Nc1ccnc2ccccc12
125	COc1c(Br)ccc(C)c1C(=O)O
261 to 264	Cc1c(C)c(C#N)c2ccccc2c1C#N
55 to 56	OCc1ccc(Oc2ccccc2)cc1
65 to 66	Nc1csc(C(F)(F)F)c1-c1ccccc1
163 to 166	Nc1cccc(-c2cncnc2)c1
49	CCCOc1ccc([N+](=O)[O-])cc1N
83 to 85	Brc1ccc(-c2ccccc2)s1
82	N#CC(C#N)=C(SCc1ccccc1)SCc1ccccc1
145	CC1(C)CC(=O)NC(=O)C1
96	COC(=O)Cn1ccnc1[N+](=O)[O-]
256	O=C(Nc1ccc(Cl)cc1)Nc1ccc(Cl)c(Cl)c1
-46.4	CCCCCCCOC(=O)CCCC
82 to 85	CC(=O)Oc1nn(-c2ccccc2)cc1Br

melting point [°C]	SMILES
145	CC1CCc2cc3c(cc2N1)CCC(C)N3C(=O)c1ccccc1 (configuration not stated)
146	Cc1c(Cl)ccc(OC(C)C(=O)Nc2ccccc2)c1Cl (configuration not stated)
162	NC(=O)c1cc(C(F)(F)F)cc(C(F)(F)F)c1
57	O=C(O)Cc1ccc(F)c(Cl)c1
210	Oc1c(I)cc(I)c2cccnc12
147 to 149	C=CCSc1ncccc1C(=O)O
150	CC1=C(C(=O)OCc2ccccc2)C(c2ccc3ccccc3c2)NC(=O)N1C (configuration not stated)
147 to 149	CCOC(=O)c1c(C)n(OC)c2ccc3nonc3c12
129 to 135	C=C(C)C1CC=C(C(=O)O)CC1 (configuration not stated)
236	C/C(=N\NC(N)=O)C1CC2(C)CCC1C2(C)C (configuration not stated)
158	CCOC(=O)c1c(SC)nn(C(=O)c2ccc([N+](=O)[O-])cc2)c1N
181	Nc1ccc(S(=O)(=O)Nc2ccnn2-c2ccccc2)cc1
86 to 90	O=C(Nc1ccccc1)C(F)(F)F
33 to 34	CC(=O)c1cccc(N=C=O)c1
88 to 89	Cn1nc(-c2ccccc2)cc1C(=O)Cl
118	Nc1nc(CC(=O)O)cs1
198 to 200	COc1cc(CC#N)c(OC)cc1CC#N
78 to 80	Cc1cc(CO)n[nH]1
136 to 141	O[C@H](C1CCCCC1)[C@H](O)C1CCCCC1
39	CC(=O)C=C(C)N
102 to 104	CC(=O)N1CCc2ccccc21

SMILES	melting point [°C]
O=[N+]([O-])c1cc[nH]n1	173 to 175
CN(C)C1CSSC1	177
CN(C)C(CSS(=O)(=O)c1ccccc1)CSS(=O)(=O)c1ccccc1	83.5
ClC1OCCOC1Cl (configuration not stated)	30
Cc1cccc2sc3nncn3c12	187
CC(C)CC#N	-101
CCC1(OC(C)=O)CCC2(C)C(CCC3C4CCC(=O)C4(C)CCC32)C1 (configuration not stated)	150 to 152
Nc1nccnn1	176
Clc1ccc2c(c1)Oc1ccc(Cl)cc1O2	202
CC1CC(C)C(=O)C(C(O)CC2CC(=O)NC(=O)C2)C1 (configuration not stated)	119
Clc1cccc(C(Cl)(Cl)Cl)n1	63
ClCc1ccc(Br)cc1	50
C[Si](Cn1cncn1)(c1ccc(F)cc1)c1ccc(F)cc1	54
N#CC(O)c1ccccc1 (configuration not stated)	-10
c1ccc(C2(c3ccccc3)CC2C2=NCCN2)cc1 (configuration not stated)	104
COCCOC1=C(N2CC2)C(=O)C(OCCOC)=C(N2CC2)C1=O	80
Cc1ccc(N2CCNCC2)cc1	29 to 34
O=c1[nH]ncc(Cl)c1Cl	202
N#CC1(O)CN2CCC1CC2 (configuration not stated)	156 to 159
